From PMC11413854, “Reversible Control of Native GluN2B-Containing NMDA Receptors with Visible Light” (ACS Chemical Neuroscience, 2024)
Several values for one entry are separate records, joined by “and”; a condition that tells them apart may be missing. Equal values may be shown once.

How the values were obtained:
[1] = Thermal stability of the PSS in the dark and fatigability over illumination cycles; type: physicochemical; conditions: for A(371 nm): Sup. Fig. 1G; for A(320 nm): Sup. Fig. 1C; for A(334 nm): Sup. Fig. 1K
Text: , we focused on the three key properties allowing the use of azobenzenes in biological systems: (i) wavelengths for trans-to-cis and cis-to-trans conversions; (ii) compound thermalstability, i.e., half-life of the cis isomer in the dark; and (iii) fatigability, i.e., the number of illumination cycles that the molecule can undergo without degradation. To this aim, […] recording solution (Ringer pH 7.3; see Methods) either in the dark (absence of illumination) or after illumination by light wavelengths ranging from 350 to 580 nm (Figures 2B and S1M). In the dark (black curve in Figure 2B), the spectrum was characteristic of a trans isomer.[32] Application of UV light at a wavelength close to the main absorption peak of the trans form (365 or 350 nm) gave a completely different spectrum (violet curves in Figure 2B), characteristic of azobenzenes in their cis configuration.[32] […] states (PSS) containing 100% trans in the dark, 82% cis and 18% residual trans after illumination at 365 nm (365 nm PSS, violet curve in Figure 2C), and 91% cis and 9% residual trans after illumination at 350 nm (350 nm PSS, lavender curve in Figure 2C). […] from 435 to 550 nm gave equivalent cis-to-trans conversions with 435 and 550 nm yielding slightly stronger conversions (∼70% trans after illumination at 435 and 550 nm calculated from UV–visible spectra at λtrans = 329 nm, Figures 2B and S1N; 550 nm PSS of 69% trans and 31% cis measured by HPLC, Figure 2C, green trace). 550 nm was chosen as the optimal wavelength since green light is less harmful for cells than lights of shorter wavelengths. We then tested the thermal stability of the cis form in the dark (in the absence of illumination). […]
Thermal stability of the cis state (365 nm PSS) was measured by irradiating the solution with 365 nm light during 10 min, then letting it relax in the dark, at room temperature (20–22 °C), inside the spectrophotometer. Spectra were acquired at regular intervals, up to 1 day, after irradiation.

[2] = Photostationary state (cis/trans) composition in solution by HPLC, UV-vis or 1H NMR; type: physicochemical; conditions: for % of trans in solution: Fig. 5J; for % of cis in solution: Figure 5E
Text: To characterize the photochemical properties of OptoNAM-3, we focused on the three key properties allowing the use of azobenzenes in biological systems: (i) wavelengths for trans-to-cis and cis-to-trans conversions; (ii) compound thermalstability, i.e., half-life of the cis isomer in the dark; and (iii) fatigability, i.e., the number of illumination cycles that the molecule can undergo without degradation. To this aim, we acquired UV–visible absorption spectra of OptoNAM-3 diluted in Xenopus oocyte recording solution (Ringer pH 7.3; see Methods) either in the dark (absence of illumination) or after illumination by light wavelengths ranging from 350 to 580 nm (Figures 2B and S1M). In the dark (black curve in Figure 2B), the spectrum was characteristic of a trans isomer.[32] Application of UV light at a wavelength close to the main absorption peak of the trans form (365 or 350 nm) gave a completely different spectrum (violet curves in Figure 2B), characteristic of azobenzenes in their cis configuration.[32] HPLC analysis of OptoNAM-3 in solution identified photostationary states (PSS) containing 100% trans in the dark, 82% cis and 18% residual trans after illumination at 365 nm (365 nm PSS, violet curve in Figure 2C), and 91% cis and 9% residual trans after illumination at 350 nm (350 nm PSS, lavender curve in Figure 2C). […] Irradiation of OptoNAM-3 365 nm PSS with wavelengths from 435 to 550 nm gave equivalent cis-to-trans conversions with 435 and 550 nm yielding slightly stronger conversions (∼70% trans after illumination at 435 and 550 nm calculated from UV–visible spectra at λtrans = 329 nm, Figures 2B and S1N; 550 nm PSS of 69% trans and 31% cis measured by HPLC, Figure 2C, green trace). 550 nm was chosen as the optimal wavelength since green light is less harmful for cells than lights of shorter wavelengths. We then tested the thermal stability of the cis form in the dark (in the absence of illumination). […] This very high stability is interesting because it avoids the prolonged use of light to maintain OptoNAM-3 in the desired configuration. OptoNAM-3 could finally endure many illumination cycles without degradation (Figure 2E).
UV–vis absorbance spectra were measured from in 1 cm long quartz cuvettes on a NanoPhotometer NP80 spectrometer (Implen, Germany). We used solutions of 10, 50, or 100 μM OptoNAMs diluted in Ringer at pH 7.3 (for TEVC extracellular recording solution, see below) from the 50 mM stock solution in DMSO. Photostationary states of OptoNAMs in Ringer for different illumination wavelengths were obtained by continuous illumination with multiwavelength LEDs (pE-2 and pE-4000, CoolLED, UK [power ∼75 mW]) or photochemical reactor RPR-100 Rayonet US (power ∼2 mW) for 350 nm, until no further change in the absorption spectra could be observed. For all irradiation wavelengths tested, 10 min illumination was sufficient to reach the steady state.
The cis–trans compositions of OptoNAM-3 in the dark and after illumination by 365, 350, and 550 nm were determined by HPLC using the relative integrated areas of the cis and trans peaks at the isosbestic point at 280 nm, […], considering that the sum of integrated area for two peaks is 100%. We checked that ratios measured at the isosbestic point at 390 nm were similar. Analytical HPLC was performed on an Agilent 1200 series equipped with a quaternary pump using a Nucleodur C18 HTech column from Macherey-Nagel Inc. (particle size 3 μm, 150 × 4.6 mm column). The compounds were eluted with a flow of 1 mL/min using a gradient of acetonitrile (0–100% over 15 min) in water, with both solvents containing 0.1% TFA. Detection was performed at 220, 280, and 390 nm.
The dark and 365 nm PSS were furthermore characterized by ^1H NMR spectroscopy with the OptoNAMs diluted in DMSO-d6 and the relative abundance of trans and cis isomers quantified using ^1H NMR spectra. […]

[3] = Ringer pH 7.3, room temperature
[4] = HPLC, physiological aqueous buffer
[5] = in solution, UV-visible spectra
[6] = in solution, calculated from UV-visible spectra at 329 nm
[7] = physiological buffer, UV-visible, measured at λtrans

c1ccc(/N=N/c2ccc(CCNc3ccncc3)cc2)cc1 [OptoNAM-3, (E)-N-(4-(Phenyldiazenyl)phenethyl)pyridin-4-amine]
thermal stability of the 550 nm PSS in the dark: time without change of spectrum [1, 3]: ≥ 24 h | cycles of UV/green illumination without degradation ([1]; absorbance at 329 nm): ≥ 10 cycles | 365 nm PSS, cis, in DMSO ([2]; DMSO, 1H NMR): 90% | % of trans in solution ([2]; 365 nm): 18.030% | % of trans in solution ([2]; 385 nm): 53.274% | % of trans in solution ([2]; 435 nm): 71.738% | % of trans in solution ([2]; 460 nm): 68.781% | % of trans in solution ([2]; 490 nm): 68.847% | % of trans in solution ([2]; 525 nm): 62.601% | % of trans in solution ([2]; 550 nm): 70.739% | % of trans in solution ([2]; 580 nm): 68.208% | % of cis in solution ([2]; 365 nm): 82.000% | % of cis in solution ([2]; 385 nm): 48.439% | % of cis in solution ([2]; 435 nm): 30.261% | % of cis in solution ([2]; 460 nm): 30.902% | % of cis in solution ([2]; 490 nm): 32.185% | % of cis in solution ([2]; 525 nm): 29.192% | % of cis in solution ([2]; 550 nm): 27.267% | % of cis in solution ([2]; 580 nm): 25.128% | 550 nm PSS, cis ([2]; HPLC): 31% | 550 nm PSS, trans ([2]; HPLC): 69% | PSS in the dark, trans ([2]; HPLC, aqueous solution): 100% | 350 nm PSS, cis [2, 4]: 91% | 350 nm PSS, residual trans [2, 4]: 9% | 365 nm PSS, residual trans [2, 4]: 18% | 365 nm PSS, cis ([2]; HPLC, physiological aqueous buffer (free OptoNAM-3)): 82% | cis after 460 nm illumination of the dark PSS [2, 5]: ~31% | cis after 550 and 580 nm illumination of the dark PSS [2, 5]: ~30% | trans after 460 nm illumination of the 365 nm PSS [2, 5]: 69% | trans after 435 nm illumination of the 365 nm PSS [2, 6]: ~70% and 72% | trans after 550 nm illumination of the 365 nm PSS [2, 6]: ~70%

Cc1cc(N)nc(/N=N/c2ccccc2)c1 [OptoNAM-2, (E)-4-methyl-6-(phenyldiazenyl)pyridin-2-amine]
thermal stability of the 365 nm PSS (mostly cis) in the dark: time without change of spectra [1, 3]: ≥ 60 min | A(371 nm) ([1]; 365 nm (t=0)): 0.257 | A(371 nm) ([1]; 365 nm (t=1 min)): 0.255 | A(371 nm) ([1]; 365 nm (t=5min)): 0.256 | A(371 nm) ([1]; 365 nm (t=10 min)): 0.255 | A(371 nm) ([1]; 365 nm (t=20 min)): 0.257 | A(371 nm) ([1]; 365 nm (t=40min)): 0.258 | A(371 nm) ([1]; 365 nm (t=60min)): 0.260 | trans after 490 nm irradiation of the 365 nm PSS [2, 7]: ~ 52%

Nc1ccnc(/N=N/c2ccccc2)c1 [OptoNAM-1, (E)-2-(phenyldiazenyl)pyridin-4-amine]
thermal stability of the 365 nm PSS (mostly cis) in the dark: time without change of spectra [1, 3]: ≥ 60 min | A(320 nm) ([1]; 365 nm (t=0)): 0.092 | A(320 nm) ([1]; 365 nm (t=2 min)): 0.093 | A(320 nm) ([1]; 365 nm (t=5min)): 0.093 | A(320 nm) ([1]; 365 nm (t=10 min)): 0.093 | A(320 nm) ([1]; 365 nm (t=20min)): 0.093 | A(320 nm) ([1]; 365 nm (t=40min)): 0.094 | A(320 nm) ([1]; 365 nm (t=60min)): 0.094 | A(320 nm) ([1]; dark): 0.207 | trans after 440 nm irradiation of the 365 nm PSS [2, 7]: ~ 75%

CS(=O)(=O)Nc1ccc2nc(Cc3ccc(/N=N/c4ccccc4)cc3)[nH]c2c1 [OptoNAM-4, (E)-N-(2-(4-(phenyldiazenyl)benzyl)-1H-benzo[d]imidazol-6-yl)methanesulfonamide]
thermal stability of the 365 nm PSS (mostly cis) in the dark: time without change of spectra [1, 3]: only little change | A(334 nm) ([1]; 365 nm (t=0)): 0.207 | A(334 nm) ([1]; 365 nm (t=5 min)): 0.200 | A(334 nm) ([1]; 365 nm (t=15 min)): 0.206 | A(334 nm) ([1]; 365 nm (t=30min)): 0.211 | A(334 nm) ([1]; 365 nm (t=40 min)): 0.208 | A(334 nm) ([1]; 365 nm (t=60min)): 0.242 | trans after 440 nm irradiation of the 365 nm PSS [2, 7]: 100%
